Converted amounts (≈) assume the structure as drawn.
Tests used:
Nucleic Acid = conditions: Bos taurus
Description: Increase of calf thymus DNA denaturation temperature (delta Tm)

Candida albicans = assay: microbe, parasite or virus in culture
Description: Tested for antimicrobial activity against Candida albicans (clinical isolate) at concentration of 0.01-5 uM/mL

Staphylococcus aureus = assay: microbe, parasite or virus in culture
Description: Tested for antimicrobial activity against Staphylococcus aureus PCM 458 at concentration of 0.01-5 uM/mL

Micrococcus luteus = assay: microbe, parasite or virus in culture
Description: Tested for antimicrobial activity against Micrococcus luteus PCM 525 at concentration of 0.01-5 uM/mL

Trichophyton benhamiae = assay: microbe, parasite or virus in culture
Description: Tested for antimicrobial activity against Trichophyton mentagrophytes (clinical isolate) at concentration of 0.01-5 uM/mL

Description for KB: Cytotoxicity in vitro against KB cell line
Description for physchem: Acid ionization constant is determined

| Structure (SMILES) | pKa (physchem) | ID50 (KB) [uM ml-1] | ΔTm (Nucleic Acid) [°C] | MIC (Candida albicans) [µM] | MIC (Staphylococcus aureus) [µM] | MIC (Micrococcus luteus) [µM] | MIC (Trichophyton benhamiae) [µM] |
| --- | --- | --- | --- | --- | --- | --- | --- |
| Cc1c2c3ccccc3nc-2[nH]c2ccccc12 | 5.7 | 0.2 | 0.7 |  |  |  |  |
| Cc1ccc2nc3n(C)c4ccc(C)cc4c(C)c-3c2c1 | 7.68 | 0.002 | 19 | 15 (≈ 4.12 µg/mL) | 30 (≈ 8.23 µg/mL) | 15 (≈ 4.12 µg/mL) | 30 (≈ 8.23 µg/mL) |
| Cc1c2c3ccccc3nc-2n(C)c2c(C)cccc12 | 7.62 | 0.009 | 10.4 | 120 (≈ 31.2 µg/mL) | 250 (≈ 65.1 µg/mL) | 120 (≈ 31.2 µg/mL) | 60 (≈ 15.6 µg/mL) |
| Cc1ccc2[nH]c3nc4ccccc4c-3c(C)c2c1 | 5.73 | 0.1 | 1.4 |  |  |  |  |
| Cc1c2ccncc2c(C)c2c1[nH]c1ccccc12 [ELLIPTECINE] | 7.4 | 0.07 | 9.8 |  |  |  |  |
| Cc1cccc2c(C)c3c(nc12)[nH]c1ccccc13 | 5.78 | 0.1 | 1.1 |  |  |  |  |
| Cc1ccc2[nH]c3nc4ccccc4c(C)c3c2c1 | 5.8 | 0.1 | 0.9 |  |  |  |  |
| Cc1ccc2c(c1)c(C)c1c3ccccc3nc-1n2C | 7.6 | 0.003 | 13.3 | 15 (≈ 3.91 µg/mL) | 60 (≈ 15.6 µg/mL) | 30 (≈ 7.81 µg/mL) | 30 (≈ 7.81 µg/mL) |
| Cn1c2nc3ccccc3c-2cc2ccccc21 [NEOCRYPTOLEPINE] | 7.24 | 0.006 | 5.2 | 120 (≈ 27.9 µg/mL) | 250 (≈ 58.1 µg/mL) | 250 (≈ 58.1 µg/mL) | 60 (≈ 13.9 µg/mL) |
| COc1cccc2c1C(=O)c1c(O)c3c(c(O)c1C2=O)C[C@@](O)(C(=O)CO)C[C@@H]3O[C@H]1C[C@H](N)[C@H](O)[C@H](C)O1 |  |  | 13 |  |  |  |  |
| Cc1c2c3ccccc3nc-2n(C)c2ccccc12 | 7.45 | 0.004 | 11 | 30 (≈ 7.39 µg/mL) | 120 (≈ 29.6 µg/mL) | 60 (≈ 14.8 µg/mL) | 60 (≈ 14.8 µg/mL) |
| Cc1ccc2nc3[nH]c4ccc(C)cc4c(C)c-3c2c1 | 5.98 | 0.1 | 1.6 |  |  |  |  |
| c1ccc2[nH]c3nc4ccccc4c-3cc2c1 | 5.55 | 0.6 | 0.3 |  |  |  |  |
